Data taken from PMC12307812 (Nature Communications, 2025).

Biological target: T1, Recombinant Human TMPRSS2 (Homo sapiens, UniProt O15393)
T1 construct: human TMPRSS2 residues 106492, N-terminal 6x His-tag; 6x His-tag (N); purchased Cusabio CSB-YP023924HU; host or cells: yeast
Test: TMPRSS2 biochemical assay with pre-incubation of inhibitor and enzyme
Conditions: for inhibition at 25.09 pM: concentration 0.025089 nM; for inhibition at 75.27 pM: concentration 0.0752671 nM; for inhibition at 0.000225801 µM: concentration 0.225801 nM; for inhibition at 0.000677404 µM: concentration 0.677404 nM; for inhibition at 0.00203221 µM: concentration 2.03221 nM; for inhibition at 0.00609663 µM: concentration 6.09663 nM; for inhibition at 0.0182899 µM: concentration 18.2899 nM; for inhibition at 0.0548697 µM: concentration 54.8697 nM; for inhibition at 0.164609 µM: concentration 164.609 nM; for inhibition at 0.493827 µM: concentration 493.827 nM; for inhibition at 1.48148 µM: concentration 1481.48 nM; for inhibition at 4.44444 µM: concentration 4444.44 nM; for inhibition at 13.3333 µM: concentration 13333.3 nM; for inhibition at 40 µM: concentration 40000 nM; for inhibition at 2.788 pM: concentration 0.00278767 nM; for inhibition at 8.363 pM: concentration 0.00836301 nM
Experimental: To that was dispensed TMPRSS2 (5 µl, 0.018 mg/ml) in assay buffer (50 mM Tris pH 8, 150 mM NaCl, 0.01% Tween20) using a BioRAPTR (Beckman Coulter) to give a total reaction volume of 5 µl. […] The final assay conditions are 10 µM peptide, 0.018 mg/ml TMPRSS2 in assay buffer (50 mM Tris-HCl, pH 8, 150 mM NaCl, 0.01% Tween20).
After incubation at room temperature for 1 h, fluorescence was measured. […] Raw plate reads for each titration point were normalized relative to a positive control containing no enzyme (0% activity, full inhibition) and a negative control containing DMSO-only wells (100% activity, basal activity). Data normalization was performed using GraphPad Prism (GraphPad Software, San Diego, CA).
We employed the curve fitting algorithm available in the SciPy package (version 1.10.1)[61] to derive the Hill slope and the IC50 value, along with their corresponding error estimates.
To model the relationship between the pre-incubation time and the IC50, we use the following equation inspired by the Morse potential:3 ft,a,D,te=D⋅1−exp−a⋅t−te^2 where t is the time, a is the width of the well, D is the IC50 at infinite time (depth of the well) and te is the time at which the IC50 reaches its minimum. Again, we made use of SciPy’s curve fitting method to obtain parameters a, D and te, with their respective error estimates.

T1 sequence (O15393 106-492 limits assumed): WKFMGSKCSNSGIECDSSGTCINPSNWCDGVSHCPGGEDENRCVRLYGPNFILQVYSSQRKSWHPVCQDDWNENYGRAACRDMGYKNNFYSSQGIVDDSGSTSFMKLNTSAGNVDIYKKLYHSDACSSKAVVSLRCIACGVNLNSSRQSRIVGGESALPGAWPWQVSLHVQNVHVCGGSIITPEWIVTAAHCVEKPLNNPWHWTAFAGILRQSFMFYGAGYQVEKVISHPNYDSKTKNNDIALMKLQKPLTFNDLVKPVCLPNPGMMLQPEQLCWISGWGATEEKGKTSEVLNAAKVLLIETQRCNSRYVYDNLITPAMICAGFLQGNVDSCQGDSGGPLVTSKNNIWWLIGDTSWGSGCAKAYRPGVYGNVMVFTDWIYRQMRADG

## CN(C)C(=O)COC(=O)Cc1ccc(OC(=O)c2ccc(NC(=N)N)cc2)cc1 [camostat]
pre-incubation 8
  inhibition at 25.09 pM: 61.7%
  inhibition at 75.27 pM: 104%
  inhibition at 0.000225801 µM: 108%
  inhibition at 0.000677404 µM: 110%
  inhibition at 0.00203221 µM: 111%
  inhibition at 0.00609663 µM: 112%
  inhibition at 0.0182899 µM: 111%
  inhibition at 0.0548697 µM: 112%
  inhibition at 0.164609 µM: 113%
  inhibition at 0.493827 µM: 113%
  inhibition at 1.48148 µM: 114%
  inhibition at 4.44444 µM: 115%
  inhibition at 13.3333 µM: 114%
  inhibition at 40 µM: 115%
pre-incubation 18
  inhibition at 2.788 pM: 24.4%
  inhibition at 8.363 pM: 17.1%
  inhibition at 25.09 pM: 57.1%
  inhibition at 75.27 pM: 86.7%
  inhibition at 0.000225801 µM: 91.7%
  inhibition at 0.000677404 µM: 94.1%
  inhibition at 0.00203221 µM: 95.7%
  inhibition at 0.00609663 µM: 98.6%
  inhibition at 0.0182899 µM: 99.3%
  inhibition at 0.0548697 µM: 99.9%
  inhibition at 0.164609 µM: 101%
  inhibition at 0.493827 µM: 102%
  inhibition at 1.48148 µM: 102%
  inhibition at 4.44444 µM: 103%
  inhibition at 13.3333 µM: 103%
  inhibition at 40 µM: 104%
pre-incubation 24
  inhibition at 2.788 pM: 38.3%
  inhibition at 8.363 pM: 38.8%
  inhibition at 25.09 pM: 73.1%
  inhibition at 75.27 pM: 100%
  inhibition at 0.000225801 µM: 105%
  inhibition at 0.000677404 µM: 107%
  inhibition at 0.00203221 µM: 107%
  inhibition at 0.00609663 µM: 108%
  inhibition at 0.0182899 µM: 110%
  inhibition at 0.0548697 µM: 110%
  inhibition at 0.164609 µM: 111%
  inhibition at 0.493827 µM: 111%
  inhibition at 1.48148 µM: 112%
  inhibition at 4.44444 µM: 112%
  inhibition at 13.3333 µM: 112%
  inhibition at 40 µM: 113%
pre-incubation 48
  inhibition at 2.788 pM: 4.55%
  inhibition at 8.363 pM: -1.82%
  inhibition at 25.09 pM: 28.4%
  inhibition at 75.27 pM: 71.5%
  inhibition at 0.000225801 µM: 83.3%
  inhibition at 0.000677404 µM: 86.8%
  inhibition at 0.00203221 µM: 88.2%
  inhibition at 0.00609663 µM: 89.9%
  inhibition at 0.0182899 µM: 90.6%
  inhibition at 0.0548697 µM: 91.9%
  inhibition at 0.164609 µM: 92.7%
  inhibition at 0.493827 µM: 94.2%
  inhibition at 1.48148 µM: 95.1%
  inhibition at 4.44444 µM: 97%
  inhibition at 13.3333 µM: 100%
  inhibition at 40 µM: 107%
